From patent US20110044938A1 (NYCOMED GMBH, priority 2006, published 2011)

Legend:
[1] = system: subclones of RKO colon adenocarcinoma cells (RKOp27 or RKOp21) arrested by Ponasterone A; test: Alamar Blue cell viability assay, cell cycle specific mode of action: cells arrested by ectopic p27Kip1 induced by Ponasterone A versus proliferating cells; assay type: cell-based; conditions: Homo sapiens, RKO p27 induced (arrested) cells, 10 μM Ponasterone A, 72 hours, value = class bound given in Table A, read-out: −logIC50 RKO p27 induced (arrested) (converted)
Description: To determine the cell cycle specific mode of action, subclones of RKO colon adenocarcinoma cells (RKOp27 or RKOp21 as described by Schmidt et al. in Oncogene 19, 2423-2429; 2000) are seeded into 96 well flat bottom plates at a density of 15000 cells per well in a volume of 50 μl per well in DMEM growth medium with 10% FCS containing 10 μM Ponasterone A. 24 hours after seeding the 50 μl each of the compound dilutions in DMEM medium are added into each well of the 96 Well plate. Each compound dilution is tested as quadruplicates. Wells containing untreated control cells are filled with 50 μl DMEM medium containing 1% DMSO. The cells are then incubated with the substances for 72 hours at 37° C. in a humidified athmosphere containing 5% carbon dioxide. To determine the viability of the cells, 10 μl of an Alamar Blue solution (Biosource) are added and the fluorescence was measured at an extinction of 544 nm and an emission of 590 nm. For the calculation of the cell viability the emission value from untreated cells is set as 100% viability and the emission rates of treated cells are set in relation to the values of untreated cells. Viabilities are expressed as % values. Viability is compared of proliferating cells grown in the absence of the inducer Ponasterone A, versus viability of cells arrested by the expression of ectopic p27Kip1 induced by Ponasterone A.
(§1) Representative −log IC50 [mol/l] values for anti-proliferation/cytotoxicity determined in the mentioned assays follow from the following table A, in which the numbers of the compound correspond to the numbers of the examples.

[2] = system: RKO (RKOp27) human colon adenocarcinoma cells; test: Alamar Blue cell viability assay, anti-proliferative/cytotoxic activity on proliferating RKO subclones; assay type: cell-based; conditions: RKOp27, 72 h, RKO p27 uninduced (proliferating) cells, value = class bound given in Table A, read-out: −logIC50 RKO p27 uninduced (proliferating) (converted)
Description: The anti-proliferative/cytotoxic activity of the compounds described herein, can be tested on subclones of RKO (RKOp27) human colon adenocarcinoma cells (Schmidt et al., Oncogene 19, 2423-2429; 2000) using the Alamar Blue cell viability assay (described in O'Brien et al. Eur J Biochem 267, 5421-5426, 2000). The compounds are dissolved as 20 mM solutions in dimethylsulfoxide (DMSO) and subsequently diluted in semi-logarithmic steps. DMSO dilutions are further diluted 1:100 into Dulbecco's modified Eagle's medium (DMEM) containing 10% fetal calf serum to a final concentration twice as much as the final concentration in the test. RKO subclones are seeded into 96 well flat bottom plates at a density of 5000 cells per well in a volume of 50 μl per well. 24 hours after seeding the 50 μl each of the compound dilutions in DMEM medium are added into each well of the 96 Well plate. Each compound dilution is tested as quadruplicates. Wells containing untreated control cells are filled with 50 μl DMEM medium containing 1% DMSO. The cells are then incubated with the substances for 72 hours at 37° C. in a hunified atmosphere containing 5% carbon dioxide. To determine the viability of the cells, 10 μl of an Alamar Blue solution (Biosource) are added and the fluorescence is measured at an extinction of 544 nm and an emission of 590 nm. For the calculation of the cell viability the emission value from untreated cells is set as 100% viability and the emission rates of treated cells are set in relation to the values of untreated cells. Viabilities are expressed as % values.
The corresponding IC50 values of the compounds for anti-proliferative/cytotoxic activity are determined from the concentration-effect curves.
as §1

Structure (SMILES) | IC50 [1] | IC50 [2]
CCOc1ccccc1CCC(=O)Nc1sc2c(c1C#N)CCC(OC(=O)NCc1ccno1)C2 (stereo not drawn) [Example 207, Isoxazol-5-ylmethyl-carbamic acid 3-cyano-2-[3-(2-ethoxy-phenyl)-propanoylamino]-4,5,6,7-tetrahydro-benzo[b]thiophen-6-yl ester] | ≥ 100 µM | ≤ 501 nM
CCNC(=O)OCC1CCc2c(sc(NC(=O)/C=C/c3ccccc3OCC)c2C#N)C1 (stereo not drawn) [Example 10, Ethyl-carbamic acid 3-cyano-2-[(E)-3-(2-ethoxy-phenyl)-allanoylamino]-4,5,6,7-tetrahydro-benzo[b]thiophen-6-ylmethyl ester] | ≥ 100 µM | ≤ 501 nM
Cc1nc(CNC(=O)OC2CCc3c(sc(NC(=O)CC(C)c4ccccc4)c3C#N)C2)cs1 (stereo not drawn) [Example 351, (2-Methyl-thiazol-4-ylmethyl)-carbamic acid 3-cyano-2-(3-phenyl-butanoylamino)-4,5,6,7-tetrahydro-benzo[b] thiophen-6-yl ester] | ≥ 100 µM | ≤ 501 nM
CCn1nccc1CNC(=O)OCC1CCc2c(sc(NC(=O)/C=C/c3cccnc3)c2C#N)C1 (stereo not drawn) [Example 52, (2-Ethyl-2H-pyrazol-3-ylmethyl)-carbamic acid 3-cyano-2-((E)-3-pyridin-3-yl-allanoylamino)-4,5,6,7-tetrahydro-benzo[b]thiophen-6-ylmethyl ester] | ≥ 100 µM | 501 to 2000 nM
Cn1ccnc1CNC(=O)OCC1CCc2c(sc(NC(=O)/C=C/c3cccnc3)c2C#N)C1 (stereo not drawn) [Example 45, (1-Methyl-1H-imidazol-2-ylmethyl)-carbamic acid 3-cyano-2-((E)-3-pyridin-3-yl-allanoylamino)-4,5,6,7-tetrahydro-benzo[b]thiophen-6-ylmethyl ester] | ≥ 100 µM | 501 to 2000 nM
CCOc1ccccc1CCC(=O)Nc1sc2c(c1C#N)CCC(OC(=O)OCc1cncs1)C2 (stereo not drawn) [Example 211, Carbonic acid 3-cyano-2-[3-(2-ethoxy-phenyl)-propanoylamino]-4,5,6,7-tetrahydro-benzo[b]thiophen-6-yl ester thiazol-5-ylmethyl ester] | ≥ 100 µM | 501 to 2000 nM
CCn1nccc1CNC(=O)OCC1CCc2c(sc(NC(=O)CC(C)c3cccc(OC)c3)c2C#N)C1 (stereo not drawn) [Example 341, (2-Ethyl-2H-pyrazol-3-ylmethyl)-carbamic acid 3-cyano-2-[3-(3-methoxy-phenyl)-butanoylamino]-4,5,6,7-tetrahydro-benzo[b] thiophen-6-ylmethyl ester] | ≥ 50.1 µM | 501 to 2000 nM
N#Cc1c(NC(=O)/C=C/c2cccnc2)sc2c1CC[C@@H](COC(=O)N1CCC(O)CC1)C2 [Example 114b, 4-Hydroxy-piperidine-1-carboxylic acid (R)-3-cyano-2-((E)-3-pyridin-3-yl-allanoylamino)-4,5,6,7-tetrahydro-benzo[b]thiophen-6-ylmethyl ester] | ≥ 100 µM | ≤ 501 nM
N#Cc1c(NC(=O)/C=C/c2cccnc2)sc2c1CCC(COC(=O)N1CC=CC1)C2 (stereo not drawn) [Example 86, 2,5-Dihydro-pyrrole-1-carboxylic acid 3-cyano-2-((E)-3-pyridin-3-yl-allanoylamino)-4,5,6,7-tetrahydro-benzo[b]thiophen-6-ylmethyl ester] | ≥ 100 µM | ≤ 501 nM
CCN(C)C(=O)OCC1CCc2c(sc(NC(=O)/C=C/c3cccnc3)c2C#N)C1 (stereo not drawn) [Example 85, Ethyl-methyl-carbamic acid 3-cyano-2-((E)-3-pyridin-3-yl-allanoylamino)-4,5,6,7-tetrahydro-benzo[b]thiophen-6-ylmethyl ester] | ≥ 100 µM | ≤ 501 nM
CS(=O)(=O)NC1CCN(C(=O)OC2CCc3c(sc(NC(=O)/C=C/c4cccnc4)c3C#N)C2)CC1 (stereo not drawn) [Example 127, 4-Methane-sulfonylamino-piperidine-1-carboxylic acid 3-cyano-2-((E)-3-pyridin-3-yl-allanoylamino)-4,5,6,7-tetrahydro-benzo[b]thiophen-6-yl ester] | ≥ 100 µM | ≤ 501 nM
Cc1n[nH]cc1CNC(=O)OC1CCc2c(sc(NC(=O)CC(C)c3ccccc3)c2C#N)C1 (stereo not drawn) [Example 298, (3-Methyl-1H-pyrazol-4-ylmethyl)-carbamic acid 3-cyano-2-(3-phenyl-butanoylamino)-4,5,6,7-tetrahydro-benzo[b]thiophen-6-yl ester] | ≥ 10 µM | ≤ 501 nM
N#Cc1c(NC(=O)/C=C/c2cccnc2)sc2c1CC[C@H](COC(=O)N1CCC(O)CC1)C2 [Example 114a, 4-Hydroxy-piperidine-1 - carboxylic acid (S)-3-cyano-2-((E)-3-pyridin-3-yl-allanoylamino)-4,5,6,7-tetrahydro-benzo[b]thiophen-6-ylmethyl ester] | ≥ 100 µM | ≤ 501 nM
CC(CC(=O)Nc1sc2c(c1C#N)CCC(COC(=O)NCc1cncn1C)C2)c1ccccc1 (stereo not drawn) [Example 312, (3-Methyl-3H-imidazol-4-ylmethyl)-carbamic acid 3-cyano-2-(3-phenyl-butanoylamino)-4,5,6,7-tetrahydro-benzo[b] thiophen-6-ylmethyl ester] | ≥ 10 µM | ≤ 501 nM

Further lines, with some results ahead:

IC50 [1] | Structure (SMILES) | IC50 [2]
≥ 100 µM | N#Cc1c(NC(=O)CCc2cccnc2)sc2c1CCC(COC(=O)N1CCCC1)C2 (stereo not drawn) [Example 258, Pyrrolidine-1-carboxylic acid 3-cyano-2-(3-pyridin-3-yl-propanoylamino)-4,5,6,7-tetrahydro-benzo[b]thiophen-6-ylmethyl ester] | 501 to 2000 nM
≥ 50.1 µM | Cc1cc(CNC(=O)OCC2CCc3c(sc(NC(=O)CC(C)c4ccccc4)c3C#N)C2)n(C)n1 (stereo not drawn) [Example 321, (2,5-Dimethyl-2H-pyrazol-3-ylmethyl)-carbamic acid 3-cyano-2-(3-phenyl-butanoylamino)-4,5,6,7-tetrahydro-benzo[b] thiophen-6-ylmethyl ester] | ≤ 501 nM
≥ 100 µM | CN(C)C(=O)OC[C@@H]1CCc2c(sc(NC(=O)/C=C/c3cccnc3)c2C#N)C1 [Example 74b, Dimethyl-carbamic acid (R)-3-cyano-2-((E)-3-pyridin-3-yl-allanoylamino)-4,5,6,7-tetrahydro-benzo[b]thiophen-6-ylmethyl ester] | ≤ 501 nM
≥ 100 µM | Cc1nn(C)cc1CNC(=O)OCC1CCc2c(sc(NC(=O)/C=C/c3cccnc3)c2C#N)C1 (stereo not drawn) [Example 54, (1,3-Dimethyl-1H-pyrazol-4-ylmethyl)-carbamic acid 3-cyano-2-((E)-3-pyridin-3-yl-allanoylamino)-4,5,6,7-tetrahydro-benzo[b]thiophen-6-ylmethyl ester] | ≤ 501 nM
≥ 100 µM | CNC(=O)OC[C@H]1CCc2c(sc(NC(=O)/C=C/c3cccnc3)c2C#N)C1 [Example 16a, (S)-Methyl-carbamic acid 3-cyano-2-((E)-3-pyridin-3-yl-allanoylamino)-4,5,6,7-tetrahydro-benzo[b]thiophen-6-ylmethyl ester] | ≤ 501 nM
≥ 100 µM | N#Cc1c(NC(=O)/C=C/c2cccnc2)sc2c1CCC(COC(=O)N1CC[C@@H](O)[C@@H](O)C1)C2 (stereo partly drawn) [Example 122, cis-3-, 4-Dihydroxy-piperidine-1-carboxylic acid 3-cyano-2-((E)-3-pyridin-3-yl-allanoylamino)-4,5,6,7-tetrahydro-benzo[b]thiophen-6-ylmethyl ester] | ≤ 501 nM
≥ 100 µM | COc1cccc(C(C)CC(=O)Nc2sc3c(c2C#N)CCC(COC(=O)NCc2cc(C)no2)C3)c1 (stereo not drawn) [Example 364, (3-Methyl-isoxazol-5-ylmethyl)-carbamic acid 3-cyano-2-[3-(3-methoxy-phenyl)-butanoyl-amino]-4,5,6,7-tetrahydro-benzo[b]thiophen-6-ylmethyl ester] | ≤ 501 nM
